Converted amounts (≈) assume the structure as drawn. “And” between values parts separate entries of the source, which are not always exact repeats. Equal values may be shown once.
Legend:
ALPs [1] = experiment: In vitro ALP inhibition, larval homogenate; type: biochemical, Rhynchophorus ferrugineus; conditions: for IC50 ALPs in vitro: fourth-instar larvae preparation
Experimental: (§1) The R. ferrugineus were homogenized larvae in a buffer (sodium phosphate, 40 mM, and pH 7.4); then, sodium chloride (10 mM dissolved in 1% (w/v) triton X-100) was added. During centrifugation (Sigma 3–30 KS), the homogenate was chilled to 4 °C and spun at a speed of 5000 rpm (20 min). The supernatant was either immediately put into action for an enzymatic test or frozen and kept at […] for later use. Each test was repeated three times. The protein content was determined using the same protocol employed by Lowry with modification using protein extract (100 µL) combined with an alkaline copper solution and a Folin–Ciocalteu phenol reagent (2 mL and 200 µL, respectively). The intensity of the resulting blue hue was evaluated during 30 min of incubation at 25 °C. Using an ELISA plate reader and a BSA standard curve, we could calculate the protein concentration by analyzing the absorbance at 600 nm (Multiskan SkyHigh Microplate Spectrophotometer, Thermo Fisher Scientific, Waltham, MA, USA).
(§2) Activities of ACPs and ALPs were evaluated using a modified version of the Asakura technique. The ACP test required incubating 100 μL of crude enzyme in a buffer of 650 μL of sodium acetate (pH: 5.0; 50 mM with ACPs) or 250 μL of Tris–HCl (at 50 mM; pH: 8.0 with ALPs) and p-nitrophenyl phosphate (5.5 mM). For 30 min; the various mixes were kept at 37 °C for incubation. Thereafter, 500 μL of NaOH (0.5 N) stopped the reaction. Using an ELISA plate reader, we determined the mixture’s 415 nm absorbance value (Multiskan SkyHigh Microplate Spectrophotometer). The ACP- and ALP-specific activity was estimated as OD 415/mg protein·h.

ACPs [2] = experiment: In vitro ACP inhibition, larval homogenate; type: biochemical, Rhynchophorus ferrugineus; conditions: fourth-instar larvae preparation
Experimental: as §1, §2

AChE [3] = experiment: In vivo AChE inhibition in treated fourth-instar larvae; design: species or system Rhynchophorus ferrugineus; conditions: fourth-instar larvae treated 24 h
Experimental: (§3) The enzyme AChE was assessed using a substrate of acetylthiocholine iodide and evaluated using 5,5′-dithiobis [2-nitrbenzoic acid] (DTNB), according to [94]. Each well contained a sodium phosphate buffer (140 µL) (pH: 8.0; 100 mM), DTNB (10 µL), extract (20 µL)/components at 1, 10, 50, 100, and 1000 µg/mL in DMSO and underwent 15 min of incubation at 25 °C. Acetylthiocholine (ATCh) was added to start the reaction (10 µL). The ATCh enzymatic hydrolysis produced a 5-thio-2-nitrobenzoate anion as a color (yellow) that was detected by measuring its wavelength, i.e., 412 nm, thereby allowing the researchers to track the rate of ATCh hydrolysis (15 min). Each response was performed three times on a microplate and examined using an ELISA plate reader to determine the 412 nm absorbance of the combination (Multiskan SkyHigh Microplate Spectrophotometer). The AChE-specific activity was measured as OD412/mg protein.h. based on observing the effect of raising the quantities of all of these compounds during the tests on the inhibition results, and the inhibitory concentration (IC50) was calculated. Then, a computer algorithm was used to determine the IC50 values (Version 9.01 of GraphPad Prism by Inc., 2020, San Diego, CA, USA).
(§4) Each enzyme’s in vivo impact was measured after treating larvae with an extract or pure chemicals. An inhibitor-free test combination served as a negative control. We determined the absorbance of the enzymes throughout a spectrum of wavelengths using a rapid reader for ELISA plates (Multiskan SkyHigh Microplate Spectrophotometer). Extracts and pure chemicals were used to treat R. ferrugineus larvae at previous serial concentrations, and their AChE, ACP, ALP, and GABA-T activity was tested in vivo using the methods outlined above. Larvae spent a day on leaf disks treated with chemicals or extract.

ACPs [4] = experiment: In vivo ACP inhibition in treated fourth-instar larvae; design: species or system Rhynchophorus ferrugineus; conditions: fourth-instar larvae treated 24 h
Experimental: as §2, §4

ALPs [5] = experiment: In vivo ALP inhibition in treated fourth-instar larvae; design: species or system Rhynchophorus ferrugineus; conditions: fourth-instar larvae treated 24 h
Experimental: as §2, §4

[6] = tested on: fourth-instar larvae of R. ferrugineus; experiment: Topical application (contact) to fourth-instar larvae (probit LD50); type: in vivo, Rhynchophorus ferrugineus; conditions: after 1 day of treatment, 95% confidence limits in brackets
Experimental: (§5) Over the course of 40 days, an O. basilicum cell suspension was cultivated in this investigation, and then the extract was obtained. […] Long segments of sugarcane stem were employed in the insect breeding lab at King Faisal University’s Research and Training Center to raise adult R. ferrugineus larvae. For this experiment, we used a topical application technique with larvae stored at 4 °C for five minutes to test the extract’s activity. Using a hand-operated micro-applicator (Burkard Manufacturing Co., Ltd., Hertfordshire, UK, collected using a […] micro-syringe), extracts at escalating ratios (10 µL) were injected into the dorsal surface of the larvae (Ito Corp.; MS-N50, Shizuoka, Japan). Five larvae per box in a series of three replicates were fed on sugarcane stem pieces measuring 10 cm in length. The LD50 was calculated by measuring the percentage of dead larvae at 24, 48, 72, and 96 h following a topical application. The antifeedant impact was determined in adults by giving them 10 cm sugarcane stem segments cut in half longitudinally. Long strips of sugarcane stem (32 cm^2) were immersed in the previous serial extract and compound concentration (10 mL) for ten seconds before they were dried in ambient air using a plastic box. Each box included a new pair of larvae (a male and a female). Ten sets of each treatment were performed. Data on how well the subjects ate were evaluated at 24, 48, 72, and 96 h.
(§6) The tissue culture parameters were calculated quantitatively from three independent sets of samples, and the mean SD was used to describe the findings. Toxicity parameters were determined quantitatively using a 10-replicate sample, and means and standard deviations were used to present the data. The median dosage obtained from a dose–response regression was used to calculate the LC50 value. By analyzing the comparative growth rate vs. the crude extract logarithm using least squares regression, the range of LC50 was calculated with 95% confidence. A simple variance study was performed on the increased weight and enzymatic activity data (ANOVA). The distinction between the means was accomplished using the Student–Newman–Keuls (SNK) test. Additionally, SPSS version 25 was used to find p < 0.05 significant deviations from the mean.

R. ferrugineus adults = experiment: Antifeedant/insecticidal test on adults with treated sugarcane stem (probit LC50); type: in vivo, Rhynchophorus ferrugineus; conditions: Rhynchophorus ferrugineus, 24 h, after 1 day of treatment, 95% confidence limits in brackets, read-out: LC50
Experimental: as §5, §6

AChE [7] = experiment: In vitro AChE inhibition, larval homogenate (Ellman); type: biochemical, Rhynchophorus ferrugineus; conditions: fourth-instar larvae preparation
Experimental: as §1, §3

## O=C(O)C[C@H](C(=O)O)[C@@H](O)C(=O)O [Isocitric acid]
ALPs [1]
  IC50 ALP in vitro: 195 µg/mL (≈ 1010 µM)
  IC50 ALPs in vitro: < 200 µg/mL
ACPs [2]
  IC50 ACPs in vitro: 192.4 µg/mL (≈ 1000 µM)
AChE [3]
  IC50 AChE in vivo: 494 ± 1.76 µg/mL
AChE [3]; listed as isocitric acid
  IC50 AChE in vivo: 494.2 µg/mL
ACPs [4]; listed as isocitric acid
  IC50 ACPs in vivo: 415.6 µg/mL
ALPs [5]; listed as isocitric acid
  IC50 ALPs in vivo: 448.3 µg/mL
[6]
  LD50: 22.7 (21.4–23.8) µg/Larvae
[6]; listed as isocitric acid
  LD50: 22.7 µg/Larvae
R. ferrugineus adults
  LC50: 1800 µg/mL (≈ 9340 µM)
AChE [7]
  IC50 AChE in vitro: 197.3 µg/mL and 197 ± 1.76 µg/mL

## O=C(C=Cc1ccc(O)c(O)c1)OC(Cc1ccc(O)c(O)c1)C(=O)OC1OC(CO)C(O)C(O)C1O (centres unmarked) [Rosmarinic acid glucoside]
ALPs [1]
  IC50 ALP in vitro: 120 µg/mL (≈ 229 µM)
ALPs [1]; listed as rosmarinyl glucoside
  IC50 ALPs in vitro: < 200 µg/mL
ACPs [2]; listed as rosmarinyl glucoside
  IC50 ACPs in vitro: 123.6 µg/mL (≈ 237 µM)
AChE [3]
  IC50 AChE in vivo: 313 ± 0.85 µg/mL
AChE [3]; listed as rosmarinyl glucoside
  IC50 AChE in vivo: 312.7 µg/mL
ACPs [4]; listed as rosmarinyl glucoside
  IC50 ACPs in vivo: 318.8 µg/mL
ALPs [5]; listed as rosmarinyl glucoside
  IC50 ALPs in vivo: 387.4 µg/mL
[6]; listed as Rosmarinyl glucoside
  LD50: 17.2 (15.7–18.1) µg/Larvae
[6]; listed as rosmarinyl glucoside
  LD50: 17.2 µg/Larvae
R. ferrugineus adults
  LC50: 1230 µg/mL (≈ 2350 µM)
AChE [7]
  IC50 AChE in vitro: 89 ± 0.85 µg/mL
AChE [7]; listed as rosmarinyl glucoside
  IC50 AChE in vitro: 89.4 µg/mL

## C[C@H]1[C@H](C)CC[C@]2(C(=O)O)CC[C@]3(C)C(=CC[C@@H]4[C@@]5(C)CC[C@H](O)C(C)(C)[C@@H]5CC[C@]43C)[C@H]12 [Ursolic acid]
ALPs [1]
  IC50 ALP in vitro: 141 µg/mL (≈ 309 µM)
ALPs [1]; listed as ursolic acid
  IC50 ALPs in vitro: < 200 µg/mL
ACPs [2]; listed as ursolic acid
  IC50 ACPs in vitro: 167.8 µg/mL (≈ 367 µM)
AChE [3]
  IC50 AChE in vivo: 458 ± 1.52 µg/mL
AChE [3]; listed as ursolic acid
  IC50 AChE in vivo: 457.8 µg/mL
ACPs [4]; listed as ursolic acid
  IC50 ACPs in vivo: 392.4 µg/mL
ALPs [5]; listed as ursolic acid
  IC50 ALPs in vivo: 476.9 µg/mL
[6]
  LD50: 14.9 (13.6–15.4) µg/Larvae
[6]; listed as ursolic acid
  LD50: 14.9 µg/Larvae
R. ferrugineus adults
  LC50: 1120 µg/mL (≈ 2450 µM)
AChE [7]
  IC50 AChE in vitro: 170 ± 1.52 µg/mL
AChE [7]; listed as ursolic acid
  IC50 AChE in vitro: 169.5 µg/mL

## COc1ccc(-c2cc(=O)c3c(O)c(OC)c(OC)cc3o2)cc1 [Salvigenin]
ALPs [1]
  IC50 ALP in vitro: 123 µg/mL (≈ 374 µM)
ALPs [1]; listed as salvigenin
  IC50 ALPs in vitro: < 200 µg/mL
ACPs [2]; listed as salvigenin
  IC50 ACPs in vitro: 151.2 µg/mL (≈ 461 µM)
AChE [3]
  IC50 AChE in vivo: 258 ± 1.23 µg/mL
AChE [3]; listed as salvigenin
  IC50 AChE in vivo: 258.4 µg/mL
ACPs [4]; listed as salvigenin
  IC50 ACPs in vivo: < 330 µg/mL and 294.2 µg/mL
ALPs [5]; listed as salvigenin
  IC50 ALPs in vivo: 228.7 µg/mL
[6]
  LD50: 10.8 (10.2–11.5) µg/Larvae
[6]; listed as salvigenin
  LD50: 10.8 µg/Larvae
R. ferrugineus adults
  LC50: 1140 µg/mL (≈ 3480 µM)
AChE [7]
  IC50 AChE in vitro: 130 ± 1.23 µg/mL
AChE [7]; listed as salvigenin
  IC50 AChE in vitro: 129.7 µg/mL

Reference: paper PMC10892409, “Exploring Ocimum basilicum’s Secondary Metabolites: Inhibition and Molecular Docking against Rhynchophorus ferrugineus for Optimal Action” (Plants, 2024)
